{
  "source": "patent US8039468B2",
  "about": "“Method of inhibition of respiratory depression using positive allosteric AMPA receptor modulators” (The Governors of the University of Alberta, priority 2006, dated 2011)",
  "key": {"[1]": {"tested_on": "perfused heart in situ preparations", "test": "Perfused heart in situ preparation, phrenic nerve discharge", "parameters": "species or system rat", "conditions": "fentanyl 4 nM, then CX546 50 μM in perfusate"}, "[2]": {"tested_on": "rats", "test": "Thermal nociception, hind paw withdrawal test", "assay_type": "in vivo, rat"}, "[3]": {"tested_on": "brainstem-spinal cord preparations", "test": "Brainstem-spinal cord preparation, rhythmic respiratory discharge (C4 ventral root)", "parameters": "species or system rat", "from_the_text": "The fetal and neonatal brainstem-spinal cord preparations have been well-characterized and shown to generate complex, coordinated patterns of respiratory-related activity. See, Smith J. C. et al. (1990) and Greer, J. J. et al. (1992). Recordings from cervical ventral and hypoglossal cranial roots provide information regarding the pharmacology of respiratory rhythm generating networks and the pathways transmitting that respiratory drive to key output components of the respiratory motor system, without the confounding influence of peripheral chemoreceptors and supramedullary structures.\nBrainstem-spinal cord preparations were carried out as follows: Sprague-Dawley (SD) rat fetuses were delivered from timed-pregnant dams anesthetized with halothane (2% delivered in 95% O2 and 5% CO2) and maintained at 37° C. by radiant heat, following procedures approved by the Animal Welfare Committee at the University of Alberta. The timing of pregnancies was determined by vaginal lavage of the dam. Newborn rat pups were anesthetized with metofane. Newborn pups and embryos were then decerebrated and the brainstem-spinal cord was dissected following procedures similar to those established for perinatal rats. See, Smith, J. C., et al. (1990) J. Neurophysiol. 64:1149-1169; Greer, J. J., et al. (1992) J. Neurophysiol. 67:996-999. The neuraxis was continuously perfused at 27±1° C. (perfusion rate 5 ml/minute, chamber volume of 1.5 ml) with modified Kreb's solution that contained (mM): 128 NaCl, 3.0 KCl, 1.5 CaCl2, 1.0 MgSO4, 24 NaHCO3, 0.5 NaH2PO4, and 30 D-glucose equilibrated with 95% O2-5% CO2 (pH=7.4)."}, "[4]": {"tested_on": "inspiratory neuron within the preBötzinger complex", "test": "Whole-cell recording from inspiratory neuron within the preBötzinger complex, medullary slice", "assay_type": "cell-based, rat"}, "[5]": {"tested_on": "Sprague-Dawley rat"}, "[6]": {"tested_on": "medullary slice preparations (preBötC, XII motoneuron nucleus)", "test": "Medullary slice preparation, respiratory rhythm (XII nerve root discharge)", "parameters": "species or system rat", "conditions": "for DAMGO-induced suppression of inspiratory discharge amplitude, focal injection into XII motorneuron nucleus / DAMGO-induced suppression of respiratory rhythm, focal injection into preBötC: newborn (P2) slice, CX614 200 μM, Compound A 1 mM, DAMGO in bath", "protocol": "The medullary slice preparation is a derivative of the brainstem-spinal cord preparation. See, Smith J. C., et al. (1991). It contains the minimum component of neuronal populations within the ventrolateral medulla necessary for generating a respiratory rhythm, the preBötC. The medullary slice also contains a significant portion of the rostral ventral respiratory group, hypoglossal nucleus and XII cranial nerve rootlets from which inspiratory motor discharge is recorded.\nBrainstem-spinal cords isolated from newborn rats were pinned down, ventral surface upward, on a paraffin-coated block. See, Funk, G. D., et al. (1993); Smith, J. C., et al. (1991). The block was mounted in the vise of a vibratome bath (Leica, VT1000S). […] A single transverse slice containing the preBötC and more caudal reticular formation regions was then cut (500-600 μm thick), transferred to a recording chamber and pinned down onto a Sylgard elastomer. The medullary slice was continuously perfused with a bathing solution identical to that used for the brainstem-spinal cord preparation with the exception that in some cases the K^+ concentration was increased to 9 mM which facilitates long-term generation of stable rhythm (>5 hours) by these preparations. See, Funk, G. D., et al. (1993); Smith, J. C., et al. (1991). Recordings were made from the hypoglossal (XII) cranial nerve roots, cervical (C4) ventral roots and neuronal population discharge within the ventrolateral medulla with suction electrodes placed over the nerve roots or on the surface of the rhythmic slice preparations."}, "[7]": {"tested_on": "XII motorneuron", "assay_type": "cell-based, rat", "conditions": "compound in bathing medium, TTX present"}, "[8]": {"conditions": "listed as 4-(BENZOFURAZAN-5-YLCARBONYL)MORPHOLINE"}},
  "note": "“Also recorded” adds a separate entry of the source. Marks after values point to notes of the source that are not given here.",
  "data": [
    {"smiles": "O=C(c1ccc2c(c1)OCCO2)N1CCCCC1", "note": "[CX546, 1-(1,4-benzodioxan-6-ylcarbonyl)piperidine]", "values": [
      {"measurement": "fentanyl-induced depression of respiratory frequency and phrenic burst amplitude", "setting": "[1]", "value": "counters"},
      {"measurement": "Latency (s), hind paw withdrawal", "setting": "[2]; Adult (2-3 months), drug alone i.p. (CX546 16 mg/kg pre-administration of fentanyl; fentanyl 130 μg/kg)", "value": "5.3 ± 2.1", "unit": "s"},
      {"measurement": "Latency (s), hind paw withdrawal", "setting": "[2]; Adult (2-3 months), post-administration of fentanyl 130 μg/kg, CX546 16 mg/kg or naloxone 1 mg/kg i.p.", "value": ">20* s"},
      {"measurement": "sensitivity of thermal nociception tests in the control condition", "setting": "[2]; CX546 16 mg/kg on its own", "value": "did not change the sensitivity"},
      {"measurement": "Latency (s), hind paw withdrawal", "setting": "[2]; Newborn (P1-P2), drug alone i.p. (CX546 16 mg/kg pre-administration of fentanyl; fentanyl 60 μg/kg)", "value": "4.3 ± 3.2", "unit": "s"},
      {"measurement": "Latency (s), hind paw withdrawal", "setting": "[2]; Newborn (P1-P2), post-administration of fentanyl 60 μg/kg, CX546 16 mg/kg or naloxone 1 mg/kg i.p.", "value": ">20* s"},
      {"measurement": "fentanyl-induced analgesia after subsequent administration of the drug", "setting": "[2]; newborn and adult rats, CX546 16 mg/kg or naloxone 1 mg/kg i.p.", "value": "persisted"},
      {"measurement": "frequency of rhythmic respiratory discharge", "setting": "[3]; E20 preparation, CX546 50-100 μM in bathing medium", "value": "markedly enhanced"},
      {"measurement": "DAMGO-induced depression of respiratory frequency and amplitude", "setting": "[3]; P1-P2, DAMGO 800 nM, then CX546 200 μM bath-applied", "value": "alleviated; also recorded: partially reversed"},
      {"measurement": "baseline respiratory frequency", "setting": "[3]; P3 preparations, bath-applied CX546", "value": "no effect on the baseline frequency"},
      {"measurement": "respiratory frequency compared to control", "setting": "[3]; perinatal preparations E18-P0, bath-applied CX546", "value": "significant increase in frequency"},
      {"measurement": "frequency of the rhythm and inspiratory drive potential", "setting": "[4]; current clamp, low extracellular K+", "value": "increased"},
      {"measurement": "amplitude of inward inspiratory drive current", "setting": "[4]; voltage clamp, same neuron", "value": "marked increase"},
      {"measurement": "baseline frequency and amplitude of breathing", "setting": "[5]; CX546 16 mg/kg i.p. on its own, newborn P0-P2 and adult rats", "value": "not significantly altered"},
      {"measurement": "behaviour or arousal state (spontaneous movement, agitation, sedation)", "setting": "[5]; rat, in vivo, ip, 16 mg/kg", "value": "without any obvious effect"},
      {"measurement": "time to restoration of frequency and amplitude to 3 mM [K+] bath levels", "setting": "[6]; CX546 400 μM bath-applied after rhythm ceased in 3 mM [K+]", "value": "≤ 2", "unit": "min"},
      {"measurement": "effect on rhythmic respiratory activity after cessation", "setting": "[6]; CX546 400 μM bath-applied after rhythm ceased in 3 mM [K+], P2 slice", "value": "rapid and potent stimulation of respiratory networks; also recorded: restored rhythmic activity of XII motoneurons"},
      {"measurement": "control values of respiratory frequency or amplitude of motor nerve discharge", "setting": "[6]; CX546 on its own, 9 mM [K+]o", "value": "did not significantly alter"},
      {"measurement": "DAMGO-induced depression of respiratory frequency and amplitude", "setting": "[6]; P1-P2 slice, 9 mM [K+]o, DAMGO 800 nM, then CX546 200 μM bath-applied", "value": "alleviated; also recorded: partially reversed"},
      {"measurement": "persistence of respiratory rhythm in presence of compound", "setting": "[6]; P2 slice, 3 mM [K+]o, CX546 in bath", "value": "> 3", "unit": "h"}
    ]},
    {"smiles": "O=C(c1ccc2nonc2c1)N1CCOCC1", "note": "[Compound A, 4-(benzofurazan-5-ylcarbonyl)morpholine]", "values": [
      {"measurement": "amplitude and duration of glutamate-induced inward currents", "setting": "[7]", "value": "not significantly altered"},
      {"measurement": "current amplitude in response to glutamate injections", "setting": "[4]; voltage clamp, TTX present, bath-applied compound", "value": "increases"},
      {"measurement": "persistence of enhancement of respiratory rhythm", "setting": "[5]; rat, in vivo", "value": "at least 1 hour"},
      {"measurement": "DAMGO-induced suppression of inspiratory discharge amplitude, focal injection into XII motorneuron nucleus", "setting": "[6]", "value": "alleviates some of the amplitude depression"},
      {"measurement": "DAMGO-induced suppression of respiratory rhythm, focal injection into preBötC", "setting": "[6]", "value": "alleviates the frequency depression"},
      {"measurement": "DAMGO-induced suppression of inspiratory discharge amplitude, focal injection into XII motorneuron nucleus", "setting": "[6]; [8]", "value": "alleviates DAMGO induced suppression of respiratory rhythm"},
      {"measurement": "DAMGO-induced suppression of respiratory rhythm, focal injection into preBötC", "setting": "[6]; [8]", "value": "alleviates DAMGO induced suppression of respiratory rhythm"}
    ]},
    {"smiles": "C[C@@H](NC(=O)[C@@H](N)Cc1ccc(O)cc1)C(=O)NCC(=O)N(C)[C@@H](Cc1ccccc1)C(=O)NCCO", "note": "[DAMGO, Tyr-D-Ala-Gly-N-methyl-Phe-Gly-ol-enkephalin, reference compound]", "values": [
      {"measurement": "respiratory frequency and amplitude", "setting": "[3]; P1 preparation, DAMGO 800 nM bath-applied", "value": "markedly suppressed"},
      {"measurement": "respiratory frequency and amplitude", "setting": "[6]; P1 slice in 9 mM [K+]o, DAMGO 800 nM bath-applied", "value": "markedly suppressed"}
    ]}
  ]
}
